# Columns and labels:
# RUNX2 [1] = assay: RUNX2 protein expression by Western blot in lung cancer cells A549; assay type: cell-based
# Experimental: (§1) Cells are seeded in medium dishes (6 cm), cultured overnight, when the cell confluency is 80%, the original medium is discarded, PBS rinses the cells, and then replaced with Fostamatinib containing a final concentration of 10 uM or other concentrations, after 6-12 hours, the cells are harvested, RNA and protein liquid are extracted, and the protein and mRNA expression changes of RUNX2 are detected by Western blot and qPCR experiments, respectively.
# RUNX2 [2] = assay: RUNX2 protein expression by Western blot in lung cancer cell H1299; assay type: cell-based; conditions: H1299 cells
# Experimental: as §1
# RUNX2 mRNA [3] = assay: RUNX2 mRNA expression by qPCR in lung cancer cells A549; assay type: cell-based
# Experimental: as §1
# RUNX2 mRNA [4] = assay: RUNX2 mRNA expression by qPCR in lung cancer cell H1299; assay type: cell-based; conditions: H1299 cells
# Experimental: as §1
# RUNX2 [5] = assay: RUNX2 protein expression by Western blot in hepatoma cells BEL-7402; assay type: cell-based; conditions: BEL-7402 cells, 0, 2.5, 5 and 10 uM for 6 h, FIG. 5
# Experimental: as §1
# RUNX2 mRNA [6] = assay: Animal testing (intraperitoneal injection): RUNX2 mRNA in mouse liver tissue by qPCR; assay type: in vivo, C57BL/6 male mice; conditions: mice, 40 mg/kg intraperitoneal injection, 4 consecutive days, liver collected 48 hours after last injection, FIG. 6
# Experimental: • Drug: Fostamatinib MCE(HY-13038A) • Mice: 8-week-old C57BL/6 male mice • Concentration of administration: 40 mg/kg • Mode of administration: intraperitoneal injection
# Experimental steps: mice are randomly divided into two groups, experimental group (fostamatinib) and control group (mock), before daily experiments, a certain amount of fostamatinib is accurately weighted and dissolve in 0.5% CMC ([…] cellulose), fully pipetted into a uniform suspension, the concentration of 4 mg/ml, and ready for use. According to the injection volume of 100 ul/10 g per mouse, the intraperitoneal injection was carried out for 4 consecutive days. The mouse liver tissue was collected 48 hours after the last injection, RNA was extracted, and the mRNA expression level of RUNX2 was detected by real-time fluorescence quantitative PCR (qPCR).
# RUNX2 [7] = assay: Computational studies and preliminary experimental studies of related disease models: Runx2 expression; conditions: general statement
# [8] = treated 6 hours, antibody changed, FIG. 3
# [9] = treated 8 hours, Fostamatinib 10 uM or other concentrations, FIG. 1
# [10] = treated 8 hours, Fostamatinib 10 uM or other concentrations, FIG. 2
SMILES,protein expression level of RUNX2 (RUNX2 [1]; [8]),protein expression level of RUNX2 (RUNX2 [1]; [9]),protein expression level of RUNX2 (RUNX2 [2]; [8]),protein expression level of RUNX2 (RUNX2 [2]; [9]),"mRNA level of RUNX2 (RUNX2 mRNA [3]; 6 hours, FIG. 4)",mRNA expression level of RUNX2 (RUNX2 mRNA [3]; [10]),"mRNA level of RUNX2 (RUNX2 mRNA [4]; 6 hours, FIG. 4)",mRNA expression level of RUNX2 (RUNX2 mRNA [4]; [10]),expression level of RUNX2 protein (RUNX2 [5]),mRNA expression level of RUNX2 in liver tissue (RUNX2 mRNA [6]),expression of Runx2 (RUNX2 [7])
COc1cc(Nc2ncc(F)c(Nc3ccc4c(n3)N(COP(=O)(O)O)C(=O)C(C)(C)O4)n2)cc(OC)c1OC [Fostamatinib],down-regulated a certain trend,tends to decrease,down-regulated a certain trend,tends to decrease,significantly reduced,decreases significantly,significantly reduced,decreases significantly,significantly reduced and dose-dependent,significantly reduce,significantly down-regulate
CNC(=O)c1cc(Oc2ccc(NC(=O)Nc3ccc(Cl)c(C(F)(F)F)c3)c(F)c2)ccn1 [Regorafenib],–,–,–,–,–,–,–,–,–,–,significantly down-regulate
"COc1ccc2[nH]cc(CCNC(C)=O)c2c1 [melatonin, Melatonin]",–,–,–,–,–,–,–,–,–,–,significantly down-regulate

# — patent publication US12693289B2, “Application of compounds in the preparation of reagents for down-regulation of RUNX2” (Geneheal Biotechnology Co., Ltd., priority 2020, dated 2026)
